Key:
adult male Wistar rats [1] = test system: adult male Wistar rats
adult male Wistar rats [2] = test: Tail-flick test, acute pain model, single administration; type: in vivo; settings: i.t., 10 nmol/rat, mean ± SEM
adult male Wistar rats [3] = test: Rotarod, evaluation of motor impairment; type: in vivo; settings: 10 nmol/rat i.t., 30 min after administration, cut-off 300 s, n = 6
adult male Wistar rats [4] = test: Scratching and grooming behaviour; type: in vivo; settings: 10 nmol/rat i.t.
dopamine D2 receptors = dopamine D2 receptors (Homo sapiens, UniProt P14416); test: [35S]GTPγS binding assay in transfected cells, dopamine D2 receptor; type: biochemical
Chain of dopamine D2 receptors (P14416 whole entry): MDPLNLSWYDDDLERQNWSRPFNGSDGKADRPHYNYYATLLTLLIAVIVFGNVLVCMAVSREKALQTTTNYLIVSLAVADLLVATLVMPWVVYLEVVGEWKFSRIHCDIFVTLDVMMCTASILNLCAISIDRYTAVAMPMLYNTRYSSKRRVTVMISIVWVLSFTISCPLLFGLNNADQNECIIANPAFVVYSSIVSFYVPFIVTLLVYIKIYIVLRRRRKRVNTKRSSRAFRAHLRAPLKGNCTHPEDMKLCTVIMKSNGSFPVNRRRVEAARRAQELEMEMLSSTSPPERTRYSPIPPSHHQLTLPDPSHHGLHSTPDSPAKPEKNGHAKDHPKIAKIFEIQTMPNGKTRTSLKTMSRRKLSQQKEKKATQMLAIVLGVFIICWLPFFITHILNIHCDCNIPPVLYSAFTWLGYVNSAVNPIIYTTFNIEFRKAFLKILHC

| SMILES | Increase in the acute ED50 values after repeated treatment (adult male Wistar rats [1]; i.t., tail-flick test) [fold] | ED50 value (nmol, i.t.), Day 1 (adult male Wistar rats [1]; rat tail-flick, 30 min post-injection, Day 1, mean (CI 95%)) | ED50 value (nmol, i.t.), Day 3 (adult male Wistar rats [1]; rat tail-flick, repeated daily treatment, Day 3, mean (CI 95%)) | MPE (%), tail-flick test (adult male Wistar rats [2]; 15 min post-administration) [%] | MPE (%), tail-flick test (adult male Wistar rats [2]; 30 min post-injection) [%] | Latency to fall, Rotarod (adult male Wistar rats [3]) [s] | Additional behaviours (wet-dog shakes, teeth chattering) (adult male Wistar rats [4]) | Scratching response (adult male Wistar rats [4]; day 9, first 30 min post-injection) | Influence of domperidone on the [35S]GTPγS response (dopamine D2 receptors; dopamine receptor antagonist domperidone present, unpublished data) | Emax (dopamine D2 receptors; read-out: Emax, G protein activation at dopamine D2 receptor) [%] |
| --- | --- | --- | --- | --- | --- | --- | --- | --- | --- | --- |
| CN1CC[C@]23c4c5ccc(O)c4O[C@H]2[C@@H](O)C=C[C@H]3[C@H]1C5 [Morphine] | 3.2 | 2.82 (2.33–3.41) nmol | 9.03 (7.03–11.61) nmol | 84.50 ± 3.84 | 86.23 ± 4.76 | 222.33 ± 8.44 | wet-dog shakes and teeth chattering | strong scratch reflex in rats that weakened over time | – | – |
| NCCc1ccc(O)c(O)c1 [Dopamine] | – | – | – | – | – | – | – | – | considerably reduced in the presence of domperidone | 141 |
